# Reference: the supplement of paper PMC10307832
# What was measured:
# Experiment in all cases: relative viability (nuclei count vs DMSO), 5 days (fraction); higher = more cells survive
# Cediranib + Foretinib = compound: COc1cc2c(Oc3ccc4[nH]c(C)cc4c3F)ncnc2cc1OCCCN1CCCC1 [Cediranib] + COc1cc2c(Oc3ccc(NC(=O)C4(C(=O)Nc5ccc(F)cc5)CC4)cc3F)ccnc2cc1OCCCN1CCOCC1 [Foretinib] (partner 0.25 µM)
# In short: (§1)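 Cells from lung cancer lines were seeded into 1536-well plates and, one day later, dosed by pin tool. Treatments were either a single drug or a fixed dose of an anchor drug with five library-drug doses (not always all listed) in √10 steps. After 5 days, nuclei were stained in a one-step fixation (final 0.05% Triton X-100, 1% formaldehyde, 1 ug/ml Hoechst) and counted on 4× images, and relative viability is the treated-to-vehicle nuclei ratio, as the median of duplicate plates.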
# [1] = compound: O=C(C[C@H]1NCCC[C@@H]1O)Cn1cnc2cc(Br)c(Cl)cc2c1=O (racemic) [Halofuginone] + CC(=O)Nc1cccc(-n2c(=O)n(C3CC3)c(=O)c3c(Nc4ccc(I)cc4F)n(C)c(=O)c(C)c32)c1 [Trametinib] (partner 0.02 µM)
# In short: as §1
# [2] = compound: O=C(C[C@H]1NCCC[C@@H]1O)Cn1cnc2cc(Br)c(Cl)cc2c1=O (racemic) [Halofuginone] + CCNC(=O)c1noc(-c2cc(C(C)C)c(O)cc2O)c1-c1ccc(CN2CCOCC2)cc1 [Luminespib] (partner 0.01 µM)
# In short: as §1
# Halofuginone + Lapatinib = compound: O=C(C[C@H]1NCCC[C@@H]1O)Cn1cnc2cc(Br)c(Cl)cc2c1=O (racemic) [Halofuginone] + CS(=O)(=O)CCNCc1ccc(-c2ccc3ncnc(Nc4ccc(OCc5cccc(F)c5)c(Cl)c4)c3c2)o1 [Lapatinib] (partner 2 µM)
# In short: as §1
Cell Line,relative viability (Cediranib + Foretinib; first compound 0.04 µM),relative viability (Cediranib + Foretinib; first compound 0.1265 µM),relative viability (Cediranib + Foretinib; first compound 0.4 µM),relative viability (Cediranib + Foretinib; first compound 1.265 µM),relative viability (Cediranib + Foretinib; first compound 4 µM),relative viability ([1]; first compound 0.001 µM),relative viability ([1]; first compound 0.003162 µM),relative viability ([1]; first compound 0.01 µM),relative viability ([1]; first compound 0.03162 µM),relative viability ([1]; first compound 0.1 µM),relative viability ([2]; first compound 0.001 µM),relative viability ([2]; first compound 0.003162 µM),relative viability ([2]; first compound 0.01 µM),relative viability ([2]; first compound 0.03162 µM),relative viability ([2]; first compound 0.1 µM),relative viability (Halofuginone + Lapatinib; first compound 0.001 µM),relative viability (Halofuginone + Lapatinib; first compound 0.003162 µM),relative viability (Halofuginone + Lapatinib; first compound 0.01 µM),relative viability (Halofuginone + Lapatinib; first compound 0.03162 µM),relative viability (Halofuginone + Lapatinib; first compound 0.1 µM)
NCI-H1650,1.07,1.36,1.14,1.08,0.873,0.656,0.696,0.55,0.57,0.216,0.188,0.217,0.193,0.204,0.235,0.594,0.787,0.677,0.704,0.194
NCI-H1651,0.827,0.763,0.685,0.831,0.829,0.8,0.853,0.804,0.819,0.806,0.7,0.797,0.802,0.65,0.427,0.939,0.908,0.763,0.768,0.34
NCI-H1666,0.972,1.01,0.916,0.945,1,0.944,0.852,0.79,0.865,0.68,1.01,0.968,0.996,0.958,0.783,0.685,0.826,0.626,0.67,0.458
NCI-H1734,0.813,0.911,0.822,0.853,0.979,0.68,0.721,0.733,0.602,0.171,0.198,0.199,0.224,0.233,0.187,1.12,1.02,1.05,0.986,0.812
NCI-H1755,0.97,0.941,0.903,0.944,0.908,0.793,0.786,0.745,0.774,0.765,0.469,0.41,0.392,0.565,0.445,0.993,0.992,0.992,1.04,0.997
NCI-H1793,0.758,0.931,0.698,–,0.672,0.483,0.524,0.363,0.503,0.327,0.181,0.191,0.172,0.211,0.161,0.775,0.832,0.707,0.811,0.589
NCI-H1915,1.14,1.01,1.08,1.11,1.13,0.319,0.291,0.28,0.297,0.262,0.787,0.826,0.794,0.719,0.55,0.977,0.983,0.942,0.96,0.984
NCI-H1944,0.95,0.975,0.905,0.873,1,0.394,0.437,0.417,0.43,0.355,0.647,0.7,0.763,0.735,0.313,0.709,0.835,0.852,0.825,0.675
NCI-H1975,0.952,1.03,0.944,1.05,1.04,0.448,0.317,0.361,0.298,0.157,0.24,0.215,0.272,0.241,0.183,0.881,0.873,0.766,0.692,0.385
NCI-H1993,0.798,0.936,0.763,0.739,0.53,0.502,0.505,0.597,0.505,0.485,1,1.05,0.699,0.863,0.682,0.792,0.86,0.862,0.789,0.823
NCI-H2009,1.24,1.15,1.24,1.25,1.17,0.345,0.343,0.295,0.234,0.11,1.07,1.04,1.03,0.904,0.692,1.06,1.01,0.887,0.83,0.409
NCI-H2023,0.775,0.922,0.924,0.878,1.01,0.625,0.482,0.558,0.202,0.0677,0.849,0.699,0.529,0.148,0.0557,0.8,0.809,0.874,0.494,0.0821
NCI-H2085,0.919,0.942,0.861,0.759,0.923,0.541,0.512,0.525,0.585,0.349,0.41,0.5,0.48,0.489,0.377,0.769,0.762,0.695,0.778,0.649
